Laboratory results published in article PMC4076210, “Discovery of Novel AKT Inhibitors with Enhanced Anti-Tumor Effects in Combination with the MEK Inhibitor” (PLoS ONE, 2014).
Like-named read-outs stand apart in the source and are kept apart here.

Legend:
Experiment in all cases: Kinase panel
Type in all cases: biochemical
ULK2(h) = target: T1, ULK2(h) (Homo sapiens, UniProt Q8IYT8)
T1 construct: purchased Millipore KinaseProfiler
T1 sequence (Q8IYT8 1-1036): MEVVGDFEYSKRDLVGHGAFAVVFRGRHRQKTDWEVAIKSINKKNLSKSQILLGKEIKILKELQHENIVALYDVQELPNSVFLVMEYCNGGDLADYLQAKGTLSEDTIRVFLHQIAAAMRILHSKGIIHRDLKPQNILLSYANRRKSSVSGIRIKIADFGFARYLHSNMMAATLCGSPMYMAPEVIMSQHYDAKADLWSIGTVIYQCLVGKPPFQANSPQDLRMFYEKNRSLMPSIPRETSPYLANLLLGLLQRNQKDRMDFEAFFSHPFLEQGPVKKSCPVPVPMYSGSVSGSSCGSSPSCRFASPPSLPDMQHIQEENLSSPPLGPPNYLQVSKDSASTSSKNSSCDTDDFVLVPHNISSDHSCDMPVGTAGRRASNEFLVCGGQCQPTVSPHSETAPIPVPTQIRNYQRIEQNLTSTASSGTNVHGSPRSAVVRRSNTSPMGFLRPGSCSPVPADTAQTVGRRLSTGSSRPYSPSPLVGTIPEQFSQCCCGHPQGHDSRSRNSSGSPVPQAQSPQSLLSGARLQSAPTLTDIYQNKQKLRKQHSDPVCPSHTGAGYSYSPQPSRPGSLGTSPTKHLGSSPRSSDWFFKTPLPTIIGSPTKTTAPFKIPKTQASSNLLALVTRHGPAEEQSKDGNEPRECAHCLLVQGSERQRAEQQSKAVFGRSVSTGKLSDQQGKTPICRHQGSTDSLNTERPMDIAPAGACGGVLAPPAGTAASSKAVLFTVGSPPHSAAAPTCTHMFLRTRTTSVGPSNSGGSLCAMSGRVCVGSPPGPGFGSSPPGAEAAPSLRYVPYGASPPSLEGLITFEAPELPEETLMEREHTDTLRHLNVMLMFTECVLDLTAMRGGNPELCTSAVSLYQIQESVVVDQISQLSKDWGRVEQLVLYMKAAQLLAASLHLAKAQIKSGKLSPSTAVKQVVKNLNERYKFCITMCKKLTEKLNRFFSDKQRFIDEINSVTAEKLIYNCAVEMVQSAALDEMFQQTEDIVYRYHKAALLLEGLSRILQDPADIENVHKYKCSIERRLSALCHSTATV

CK1γ3(h) = target: T2, CK1γ3(h) (Homo sapiens, UniProt Q9Y6M4)
T2 construct: purchased Millipore KinaseProfiler

cKit(D816V)(h) = target: T3, cKit(D816V)(h) (Homo sapiens, UniProt P10721, D816V)
T3 construct: purchased Millipore KinaseProfiler

LIMK1(h) = target: T4, LIMK1(h) (Homo sapiens, UniProt P53667)
T4 construct: purchased Millipore KinaseProfiler

MEK1(h) = target: T5, MEK1(h) (Homo sapiens, UniProt Q02750)
T5 construct: purchased Millipore KinaseProfiler

WNK3(h) = target: T6, WNK3(h) (Homo sapiens, UniProt Q9BYP7)
T6 construct: purchased Millipore KinaseProfiler

SGK2(h) = target: T7, SGK2(h) (Homo sapiens, UniProt Q9HBY8)
T7 construct: purchased Millipore KinaseProfiler
T7 sequence (Q9HBY8 1-367): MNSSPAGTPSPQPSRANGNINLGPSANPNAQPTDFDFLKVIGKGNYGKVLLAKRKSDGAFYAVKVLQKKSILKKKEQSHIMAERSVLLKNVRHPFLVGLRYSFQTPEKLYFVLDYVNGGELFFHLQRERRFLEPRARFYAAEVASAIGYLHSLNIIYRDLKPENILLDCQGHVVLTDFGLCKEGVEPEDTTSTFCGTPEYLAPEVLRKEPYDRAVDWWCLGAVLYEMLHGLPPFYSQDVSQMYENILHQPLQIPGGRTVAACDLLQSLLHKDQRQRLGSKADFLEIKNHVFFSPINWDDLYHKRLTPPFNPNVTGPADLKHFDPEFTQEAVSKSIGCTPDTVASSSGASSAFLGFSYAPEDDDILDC

EphA4(h) = target: T8, EphA4(h) (Homo sapiens, UniProt P54764)
T8 construct: purchased Millipore KinaseProfiler

CDK5/p35(h) = target: T9, CDK5/p35(h) (Homo sapiens, UniProt Q00535)
T9 construct: purchased Millipore KinaseProfiler

PKCμ(h) = target: T10, PKCμ(h) (Homo sapiens, UniProt Q15139)
T10 construct: purchased Millipore KinaseProfiler
T10 sequence (Q15139 1-912): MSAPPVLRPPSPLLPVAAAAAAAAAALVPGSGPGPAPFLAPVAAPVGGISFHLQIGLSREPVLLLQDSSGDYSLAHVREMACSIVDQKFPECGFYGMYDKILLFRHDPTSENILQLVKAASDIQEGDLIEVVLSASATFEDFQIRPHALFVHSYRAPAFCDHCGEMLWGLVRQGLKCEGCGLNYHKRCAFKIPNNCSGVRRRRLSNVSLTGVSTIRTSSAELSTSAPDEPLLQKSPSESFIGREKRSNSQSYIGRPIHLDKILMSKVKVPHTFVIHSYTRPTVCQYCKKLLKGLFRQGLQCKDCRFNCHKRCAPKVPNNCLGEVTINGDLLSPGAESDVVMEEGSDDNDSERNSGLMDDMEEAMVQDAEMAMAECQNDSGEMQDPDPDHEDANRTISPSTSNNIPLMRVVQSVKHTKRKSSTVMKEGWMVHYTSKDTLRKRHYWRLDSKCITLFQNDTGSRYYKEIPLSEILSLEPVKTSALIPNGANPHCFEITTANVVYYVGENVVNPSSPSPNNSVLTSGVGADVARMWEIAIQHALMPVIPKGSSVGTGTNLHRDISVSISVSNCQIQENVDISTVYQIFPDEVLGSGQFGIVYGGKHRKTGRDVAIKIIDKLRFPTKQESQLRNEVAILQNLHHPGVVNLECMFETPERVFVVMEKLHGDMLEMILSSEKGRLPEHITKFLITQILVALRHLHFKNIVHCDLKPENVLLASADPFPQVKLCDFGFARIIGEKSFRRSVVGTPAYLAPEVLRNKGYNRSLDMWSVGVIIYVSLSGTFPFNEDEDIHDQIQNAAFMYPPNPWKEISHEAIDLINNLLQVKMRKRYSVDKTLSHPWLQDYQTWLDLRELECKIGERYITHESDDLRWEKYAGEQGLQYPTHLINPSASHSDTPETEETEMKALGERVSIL

Ros(h) = target: T11, Ros(h) (Homo sapiens, UniProt P08922)
T11 construct: purchased Millipore KinaseProfiler

T9 sequence (Q00535 whole entry): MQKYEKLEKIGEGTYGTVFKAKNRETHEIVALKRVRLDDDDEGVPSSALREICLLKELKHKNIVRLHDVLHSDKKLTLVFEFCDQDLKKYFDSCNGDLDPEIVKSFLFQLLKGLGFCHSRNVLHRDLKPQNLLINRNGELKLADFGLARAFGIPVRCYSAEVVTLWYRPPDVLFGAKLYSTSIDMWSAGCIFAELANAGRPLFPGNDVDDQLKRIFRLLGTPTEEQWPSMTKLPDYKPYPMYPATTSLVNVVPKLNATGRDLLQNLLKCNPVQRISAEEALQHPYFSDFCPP
T9 sequence (Q15078 whole entry partner): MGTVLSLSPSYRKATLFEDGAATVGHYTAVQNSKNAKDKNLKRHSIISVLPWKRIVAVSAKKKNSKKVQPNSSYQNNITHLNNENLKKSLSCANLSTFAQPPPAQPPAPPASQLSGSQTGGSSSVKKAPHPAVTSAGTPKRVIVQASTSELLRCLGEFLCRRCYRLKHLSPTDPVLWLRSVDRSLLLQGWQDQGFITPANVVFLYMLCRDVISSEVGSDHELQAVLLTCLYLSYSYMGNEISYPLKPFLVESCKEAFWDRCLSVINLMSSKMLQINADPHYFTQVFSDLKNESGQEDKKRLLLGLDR
T6 sequence (Q9BYP7 whole entry): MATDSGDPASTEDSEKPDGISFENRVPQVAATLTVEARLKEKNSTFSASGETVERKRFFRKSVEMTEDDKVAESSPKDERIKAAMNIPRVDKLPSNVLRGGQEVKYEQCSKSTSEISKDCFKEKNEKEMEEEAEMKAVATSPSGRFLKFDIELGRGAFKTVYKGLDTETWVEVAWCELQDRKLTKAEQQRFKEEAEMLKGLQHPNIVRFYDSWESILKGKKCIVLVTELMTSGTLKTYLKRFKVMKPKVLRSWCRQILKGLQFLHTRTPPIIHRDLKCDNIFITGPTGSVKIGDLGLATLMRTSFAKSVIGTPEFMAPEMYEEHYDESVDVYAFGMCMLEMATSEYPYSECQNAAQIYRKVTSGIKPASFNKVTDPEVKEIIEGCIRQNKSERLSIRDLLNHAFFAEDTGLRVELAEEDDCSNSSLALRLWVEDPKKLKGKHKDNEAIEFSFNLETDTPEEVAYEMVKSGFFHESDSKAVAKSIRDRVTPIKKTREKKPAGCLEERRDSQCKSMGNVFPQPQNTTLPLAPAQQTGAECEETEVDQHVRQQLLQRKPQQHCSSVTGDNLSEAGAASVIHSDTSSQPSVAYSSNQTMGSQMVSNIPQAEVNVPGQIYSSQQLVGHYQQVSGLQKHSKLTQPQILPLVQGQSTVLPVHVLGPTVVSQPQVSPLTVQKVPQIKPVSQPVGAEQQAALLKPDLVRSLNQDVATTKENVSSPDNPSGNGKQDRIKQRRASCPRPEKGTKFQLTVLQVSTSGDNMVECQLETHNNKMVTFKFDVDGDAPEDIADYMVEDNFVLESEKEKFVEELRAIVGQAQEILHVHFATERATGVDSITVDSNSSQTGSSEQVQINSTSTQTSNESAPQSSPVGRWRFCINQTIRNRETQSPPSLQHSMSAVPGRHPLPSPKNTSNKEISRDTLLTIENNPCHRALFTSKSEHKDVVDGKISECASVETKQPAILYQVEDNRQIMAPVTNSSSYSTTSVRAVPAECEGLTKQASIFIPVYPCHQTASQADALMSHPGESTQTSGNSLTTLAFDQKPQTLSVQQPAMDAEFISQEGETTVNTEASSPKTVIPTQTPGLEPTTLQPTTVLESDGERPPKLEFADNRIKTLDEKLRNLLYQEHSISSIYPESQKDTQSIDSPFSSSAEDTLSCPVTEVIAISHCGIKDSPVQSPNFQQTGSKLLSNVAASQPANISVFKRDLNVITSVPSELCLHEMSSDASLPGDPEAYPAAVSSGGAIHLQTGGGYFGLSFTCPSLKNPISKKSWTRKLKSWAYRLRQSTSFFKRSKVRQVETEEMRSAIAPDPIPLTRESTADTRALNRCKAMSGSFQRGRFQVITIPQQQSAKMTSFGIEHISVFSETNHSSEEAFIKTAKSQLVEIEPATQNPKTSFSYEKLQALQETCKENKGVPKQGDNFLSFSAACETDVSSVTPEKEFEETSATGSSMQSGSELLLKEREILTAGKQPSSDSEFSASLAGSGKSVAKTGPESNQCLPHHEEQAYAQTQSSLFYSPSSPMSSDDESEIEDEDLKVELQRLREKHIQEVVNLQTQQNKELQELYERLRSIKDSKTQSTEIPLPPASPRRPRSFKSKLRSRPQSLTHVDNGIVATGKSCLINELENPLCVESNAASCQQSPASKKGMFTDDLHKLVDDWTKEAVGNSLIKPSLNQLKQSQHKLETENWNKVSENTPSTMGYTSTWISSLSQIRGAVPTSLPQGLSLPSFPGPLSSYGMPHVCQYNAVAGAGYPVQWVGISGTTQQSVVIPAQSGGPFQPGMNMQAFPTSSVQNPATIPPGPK
T4 sequence (P53667 whole entry): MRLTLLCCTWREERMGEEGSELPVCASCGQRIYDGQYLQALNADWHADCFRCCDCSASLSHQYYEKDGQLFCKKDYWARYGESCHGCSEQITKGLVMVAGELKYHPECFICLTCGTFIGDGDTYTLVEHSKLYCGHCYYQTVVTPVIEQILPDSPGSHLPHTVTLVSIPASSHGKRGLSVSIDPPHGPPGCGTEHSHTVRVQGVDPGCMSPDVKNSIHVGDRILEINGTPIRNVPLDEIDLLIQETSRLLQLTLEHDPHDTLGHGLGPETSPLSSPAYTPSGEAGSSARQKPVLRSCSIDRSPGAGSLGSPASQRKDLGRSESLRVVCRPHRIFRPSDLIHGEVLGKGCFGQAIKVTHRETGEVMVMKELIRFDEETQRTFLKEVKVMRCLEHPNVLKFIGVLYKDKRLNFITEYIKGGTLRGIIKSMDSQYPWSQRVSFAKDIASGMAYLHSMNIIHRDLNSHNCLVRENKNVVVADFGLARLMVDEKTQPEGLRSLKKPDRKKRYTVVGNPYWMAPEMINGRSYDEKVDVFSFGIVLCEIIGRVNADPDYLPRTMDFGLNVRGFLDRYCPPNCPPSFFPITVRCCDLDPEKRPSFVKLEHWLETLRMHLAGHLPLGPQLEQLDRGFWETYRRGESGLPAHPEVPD
T2 sequence (Q9Y6M4 whole entry): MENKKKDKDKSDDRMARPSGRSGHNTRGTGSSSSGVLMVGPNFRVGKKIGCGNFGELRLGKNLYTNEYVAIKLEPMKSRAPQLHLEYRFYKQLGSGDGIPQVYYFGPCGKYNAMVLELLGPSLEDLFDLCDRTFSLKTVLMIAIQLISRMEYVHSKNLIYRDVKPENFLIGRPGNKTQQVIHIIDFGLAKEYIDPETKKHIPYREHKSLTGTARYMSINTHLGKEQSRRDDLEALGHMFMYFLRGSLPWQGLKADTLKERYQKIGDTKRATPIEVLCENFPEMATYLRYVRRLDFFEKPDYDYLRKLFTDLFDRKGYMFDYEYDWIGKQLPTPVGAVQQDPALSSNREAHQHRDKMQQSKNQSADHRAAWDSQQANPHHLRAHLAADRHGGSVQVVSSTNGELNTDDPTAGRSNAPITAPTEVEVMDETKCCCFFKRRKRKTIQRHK
T8 sequence (P54764 20-986): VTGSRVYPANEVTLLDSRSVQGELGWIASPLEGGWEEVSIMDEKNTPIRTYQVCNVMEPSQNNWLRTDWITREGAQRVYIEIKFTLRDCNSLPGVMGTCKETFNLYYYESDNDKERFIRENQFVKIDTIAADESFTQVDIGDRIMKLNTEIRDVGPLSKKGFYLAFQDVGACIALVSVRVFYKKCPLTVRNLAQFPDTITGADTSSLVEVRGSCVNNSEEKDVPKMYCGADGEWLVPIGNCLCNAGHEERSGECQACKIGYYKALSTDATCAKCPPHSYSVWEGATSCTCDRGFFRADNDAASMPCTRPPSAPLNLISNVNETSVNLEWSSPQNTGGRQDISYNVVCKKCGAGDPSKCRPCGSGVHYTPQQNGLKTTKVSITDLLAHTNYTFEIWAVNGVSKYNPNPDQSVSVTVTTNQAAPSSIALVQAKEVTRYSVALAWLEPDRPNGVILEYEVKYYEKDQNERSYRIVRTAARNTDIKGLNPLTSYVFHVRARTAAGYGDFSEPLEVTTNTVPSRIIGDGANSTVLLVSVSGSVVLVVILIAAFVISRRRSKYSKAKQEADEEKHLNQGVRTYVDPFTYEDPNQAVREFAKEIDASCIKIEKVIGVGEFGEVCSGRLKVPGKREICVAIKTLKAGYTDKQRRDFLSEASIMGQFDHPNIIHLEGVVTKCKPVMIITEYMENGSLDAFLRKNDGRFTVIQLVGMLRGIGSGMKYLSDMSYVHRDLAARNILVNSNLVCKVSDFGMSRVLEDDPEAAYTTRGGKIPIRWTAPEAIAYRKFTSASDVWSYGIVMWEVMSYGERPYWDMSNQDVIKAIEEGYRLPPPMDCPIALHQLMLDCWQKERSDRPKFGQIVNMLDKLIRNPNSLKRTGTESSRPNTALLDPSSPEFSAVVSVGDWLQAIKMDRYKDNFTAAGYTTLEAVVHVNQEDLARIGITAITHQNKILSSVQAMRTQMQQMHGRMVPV
T5 sequence (Q02750 whole entry): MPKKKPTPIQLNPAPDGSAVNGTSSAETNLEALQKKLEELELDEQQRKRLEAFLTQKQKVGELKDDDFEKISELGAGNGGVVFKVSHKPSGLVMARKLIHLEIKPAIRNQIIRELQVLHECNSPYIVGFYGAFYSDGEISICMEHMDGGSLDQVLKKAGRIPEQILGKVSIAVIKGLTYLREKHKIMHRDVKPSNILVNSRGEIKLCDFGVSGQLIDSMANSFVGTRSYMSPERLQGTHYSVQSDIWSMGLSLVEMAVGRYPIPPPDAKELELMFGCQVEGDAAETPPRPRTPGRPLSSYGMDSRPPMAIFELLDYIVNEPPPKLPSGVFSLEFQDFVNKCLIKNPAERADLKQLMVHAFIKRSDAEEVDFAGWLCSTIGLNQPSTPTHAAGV

Which inhibition at 0.5 µM (ULK2(h); 0.5 µM, read-out: % Inhibition) does the source give for Cn1ncc(Cl)c1-c1cc(C(=O)N[C@H](CN)Cc2ccc(F)c(F)c2)oc1Cl [GSK2141795] here?
The inhibition at 0.5 µM was 6%.

And the inhibition at 10 µM (ULK2(h); 10 µM, read-out: % Inhibition)?
The inhibition at 10 µM was 26%.

And the inhibition at 0.5 µM (CK1γ3(h); 0.5 µM, read-out: % Inhibition)?
The inhibition at 0.5 µM was -14%.

And the inhibition at 10 µM (CK1γ3(h); 10 µM, read-out: % Inhibition)?
The inhibition at 10 µM was 51%.

What about the inhibition at 0.5 µM (cKit(D816V)(h); 0.5 µM, read-out: % Inhibition) of the same molecule?
The inhibition at 0.5 µM was -17%.

What about the inhibition at 10 µM (cKit(D816V)(h); 10 µM, read-out: % Inhibition) of the same molecule?
Its inhibition at 10 µM is -16%.

And the inhibition at 0.5 µM (LIMK1(h); 0.5 µM, read-out: % Inhibition)?
Its inhibition at 0.5 µM is 3%.

What about the inhibition at 10 µM (LIMK1(h); 10 µM, read-out: % Inhibition) of the same molecule?
Its inhibition at 10 µM is 18%.

And the inhibition at 0.5 µM (MEK1(h); 0.5 µM, read-out: % Inhibition)?
Its inhibition at 0.5 µM is 0%.

And the inhibition at 10 µM (MEK1(h); 10 µM, read-out: % Inhibition)?
The inhibition at 10 µM was 26%.

What about the inhibition at 0.5 µM (WNK3(h); 0.5 µM, read-out: % Inhibition) of the same molecule?
The inhibition at 0.5 µM was -2%.

And the inhibition at 10 µM (WNK3(h); 10 µM, read-out: % Inhibition)?
Its inhibition at 10 µM is 1%.

What about the inhibition at 0.5 µM (SGK2(h); 0.5 µM, read-out: % Inhibition) of the same molecule?
The inhibition at 0.5 µM was 67%.

And the inhibition at 10 µM (SGK2(h); 10 µM, read-out: % Inhibition)?
The inhibition at 10 µM was 97%.

What about the inhibition at 0.5 µM (EphA4(h); 0.5 µM, read-out: % Inhibition) of the same molecule?
The inhibition at 0.5 µM was -10%.

What about the inhibition at 10 µM (EphA4(h); 10 µM, read-out: % Inhibition) of the same molecule?
Its inhibition at 10 µM is -8%.

What about the inhibition at 0.5 µM (CDK5/p35(h); 0.5 µM, read-out: % Inhibition) of the same molecule?
Its inhibition at 0.5 µM is -14%.

What about the inhibition at 10 µM (CDK5/p35(h); 10 µM, read-out: % Inhibition) of the same molecule?
Its inhibition at 10 µM is 32%.

What about the inhibition at 0.5 µM (PKCμ(h); 0.5 µM, read-out: % Inhibition) of the same molecule?
Its inhibition at 0.5 µM is 37%.

What about the inhibition at 10 µM (PKCμ(h); 10 µM, read-out: % Inhibition) of the same molecule?
The inhibition at 10 µM was 91%.

And the inhibition at 0.5 µM (Ros(h); 0.5 µM, read-out: % Inhibition)?
Its inhibition at 0.5 µM is 0%.

And the inhibition at 10 µM (Ros(h); 10 µM, read-out: % Inhibition)?
Its inhibition at 10 µM is 5%.

What does the source list for Cn1ncc(Cl)c1-c1cc(C(=O)N[C@H](CN)Cc2cccc(F)c2)sc1Cl [GSK2110183]?
inhibition at 0.5 µM (ULK2(h)): 0%; inhibition at 10 µM (ULK2(h)): 15%; inhibition at 0.5 µM (CK1γ3(h)): 7%; inhibition at 10 µM (CK1γ3(h)): 28%; inhibition at 0.5 µM (cKit(D816V)(h)): 0%; inhibition at 10 µM (cKit(D816V)(h)): 9%; inhibition at 0.5 µM (LIMK1(h)): 21%; inhibition at 10 µM (LIMK1(h)): 25%; inhibition at 0.5 µM (MEK1(h)): -1%; inhibition at 10 µM (MEK1(h)): 24%; inhibition at 0.5 µM (WNK3(h)): 0%; inhibition at 10 µM (WNK3(h)): 16%; inhibition at 0.5 µM (SGK2(h)): 51%; inhibition at 10 µM (SGK2(h)): 95%; inhibition at 0.5 µM (EphA4(h)): -1%; inhibition at 10 µM (EphA4(h)): -12%; inhibition at 0.5 µM (CDK5/p35(h)): -10%; inhibition at 10 µM (CDK5/p35(h)): 17%; inhibition at 0.5 µM (PKCμ(h)): 27%; inhibition at 10 µM (PKCμ(h)): 81%; inhibition at 0.5 µM (Ros(h)): -10%; inhibition at 10 µM (Ros(h)): -10%
